Measured values taken from patent US10160744B2, “Quinoline compounds suitable for treating disorders that respond to the modulation of the serotonin 5-HT6 receptor” (Abbvie Deutschland GmbH & Co. KG, priority 2016, dated 2018).
Where a name gives a salt, the structure may show the parent alone.

Legend:
h-5-HT6 receptor = molecular target: T1, h-5-HT6 receptor (Homo sapiens, UniProt P50406); assay: 5-HT6 receptor binding assay (displacement of [3H]-LSD); settings: cloned human 5-HT6 receptor, HEK293 membranes, 1 nM [3H]-LSD
T1 construct: expressed in transfected cells
Protocol: Displacement of radioligands binding to the following cloned human receptors
1. Preparation of Membranes by Ultrasonic Treatment and Differential Centrifugation
Cells from stable clonal cell lines expressing the corresponding receptor (5-HT6, α1-adrenergic, dopamine D2 or histamine H1 receptors) were washed with PBS (w/o Ca^++, Mg^++) and harvested in PBS with 0.02% EDTA. The cells were collected by centrifugation at 500 g for 10 min. at 4° C., washed with PBS and centrifuged (500 g, 10 min. 4° C.). The pellets were stored at −80° C. until use. For membrane preparation, the thawed cell pellet was resuspended in ice-cold sucrose buffer (0.25 M sucrose, 10 mM Hepes (pH 7.4), 1 mM Phenylmethylsulfonyl fluoride (PMSF) in DMSO, 5 μg/ml Pepstatin-A, 3 mM EDTA, 0.025% Bacitracin) and homogenized with a Branson Sonifier W-250 (Settings: Timer 4; Output Control 3; Duty Cycle constant; 2 to 3 cycles). Cell disruption was checked with the aid of a microscope. Remaining unbroken cells were pelleted at 1.000 g for 10 min. at 4° C. The sucrose buffer supernatant was then centrifuged at 60.000 g for 1 h at 4° C. (Beckman Ultrazentrifuge XL 80). The pellet was resuspended in 30 ml ice-cold Tris buffer (20 mM TRIS (pH 7.4), 5 μg/ml Pepstatin A, 0.1 mM PMSF, 3 mM EDTA) by pipetting through a 10 ml serological pipet and centrifuged for 1 h at 4° C. at 60.000 g. A final resuspension was performed in a small volume of ice-cold Tris buffer (see above) by pressing through a serological pipet followed by ultrasonic treatment with a Branson Sonifier W-250 (Settings: Timer 1; Output Control 3; Duty Cycle constant; 1 cycle). Protein concentration was determined (BCA-Kit; Pierce) and aliquots stored at −80° C. or in liquid nitrogen for long-term storage.
2. Receptor Binding Experiments
All receptor binding experiments were carried out in the corresponding assay buffer in a total volume of 200 μl in the presence of various concentrations of test compound (10^−5 M to 10^−9 M, tenfold serial dilution, duplicate determinations). The assays were terminated by filtration on polyethylenimine (PEI 0.1% or 0.3%) presoaked Packard Unifilter Plates (GF/C or GF/B) with a Tomtec MachIII U 96 well-plate harvester. After the plates had been dried for 2 h at 55° C. in a drying chamber scintillation cocktail (BetaPlate Scint; PerkinElmer) was added. Radioactivity was measured in a Microbeta Trilux two hours after the addition of the scintillation mixture. Data derived from liquid scintillation counting were analysed by iterative non-linear regression analysis with the use of the Statistical Analysis System (SAS): a program similar to “LIGAND” as described by Munson and Rodbard (Analytical Biochemistry 107, 220-239 (1980).
a) 5-HT6 Receptor Binding Assay
HEK293 cells stably expressing the h-5-HT6 receptor (NCBI Reference Sequence XM 001435) were cultured in RPMI1640 medium supplemented with 25 mM HEPES, 10% fetal calf serum and 1-2 mM glutamine. The membrane preparation was performed as described in section 1. […] Non-specific binding was defined with 1 μM methiothepin. The binding reaction was carried out for 3.5 h at room temperature. During the incubation, the plates were shaken on a plate shaker at 100 rpm and terminated by filtration on Packard Unifilter GF/C (0.1% PEI) plates, followed by 2 wash cycles with ice-cold 50 mM Tris-HCl, 5 mM CaCl2.
Data derived from liquid scintillation counting were analyzed by iterative non-linear regression analysis with the use of the Statistical Analysis System (SAS): a program similar to “LIGAND” as described by Munson and Rodbard (Anal. Biochem. 1980, 107, 220-239). Fitting was performed according to formulae described by Feldman (Anal. Biochem. 1972, 48, 317-338). IC50, nH and Ki values were expressed as geometrical mean.

[1] = Metabolic stability in human liver microsomes (microsomal clearance); type: in vitro ADME; settings: pH 7.4; human liver microsomes 0.25 mg protein/mL, 0.5 μM compound, NADPH, 37° C.; read-out: mClint
Protocol: Samples of the tested compounds (0.5 μM) were preincubated together with human liver microsomes (0.25 mg of microsomal protein/mL) in 0.05 M potassium phosphate buffer of pH 7.4 in microtiter plates at 37° C. for 5 minutes. The reaction was started by adding NADPH (1.0 mM). After 0, 5, 10, 15, 20 and 30 minutes, an aliquot was removed, the reaction was cooled and stopped by adding twice the amount of quench solution consisting of acetonitrile/methanol 1:1, and containing 0.2 μM carbutamide as internal standard. The samples were frozen until analyzed. The remaining concentration of undegraded test substance was determined by liquid chromatography-tandem mass spectrometry (LC-MS/MS). The half-life (t1/2) was determined from the gradient of the ratio of the signal of (test substance/internal standard)/unit time plot, allowing the calculation of the half-life of the test substance, assuming first order kinetics, from the decrease in the concentration of the compound with time. The microsomal clearance (mClint) was calculated as follows: mClint=((ln(2)/t 1/2)/Microsomal Protein Concentration (mg/ml))*1000, leading to the unit of μL/min/mg.

T1 sequence (P50406 whole entry): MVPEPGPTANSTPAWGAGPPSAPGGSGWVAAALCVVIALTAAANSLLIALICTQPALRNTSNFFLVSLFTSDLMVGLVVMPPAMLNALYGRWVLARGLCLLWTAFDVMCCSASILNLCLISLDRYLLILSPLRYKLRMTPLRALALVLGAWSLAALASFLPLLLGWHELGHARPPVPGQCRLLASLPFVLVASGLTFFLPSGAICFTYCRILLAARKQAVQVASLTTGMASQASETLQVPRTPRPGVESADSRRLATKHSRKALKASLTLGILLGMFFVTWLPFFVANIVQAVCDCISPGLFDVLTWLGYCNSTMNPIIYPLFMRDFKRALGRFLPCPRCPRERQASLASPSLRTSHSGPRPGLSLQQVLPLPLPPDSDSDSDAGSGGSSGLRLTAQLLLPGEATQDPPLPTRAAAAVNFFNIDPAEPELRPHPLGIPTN

Row | Compound | Ki (h-5-HT6 receptor) [nM] | microsomal CLint at 0.5 μM [1] [µL/min/mg]
1 | Cc1ccc(O)c(S(=O)(=O)c2cnc3c(N4CCC(O)CC4)cccc3c2)c1 [Example 28, 1-[3-(2-Hydroxy-5-methyl-phenyl)sulfonyl-8-quinolyl]piperidin-4-ol] | 10 to 100 | 30 to 60
2 | O=S(=O)(c1ccccc1)c1cnc2c(N3CCC[C@H](O)C3)cccc2c1 [Example 22, (3S)-1-[3-(Benzenesulfonyl)-8-quinolyl]piperidin-3-ol] | 10 to 100 | 30 to 60
3 | O=S(=O)(c1cccc(C(F)(F)F)c1)c1cnc2c(N3CCC[C@H](O)C3)cccc2c1 [Example 4, (S)-1-[3-(3-Trifluoromethyl-benzenesulfonyl)-quinolin-8-yl]-piperidin-3-ol Hydrochloride] | < 10 | 60 to 120
4 | O=S(=O)(c1ccccc1)c1cnc2c(N3C[C@@H](O)[C@H](O)C3)cccc2c1 [Example 45, (3R,4R)-1-[3-(Benzenesulfonyl)-8-quinolyl]pyrrolidine-3,4-diol] | < 10 | < 30
5 | O=C(O)[C@@H]1CCN(c2cccc3cc(S(=O)(=O)c4cccc(C(F)(F)F)c4)cnc23)C1 [Example 12, (3R)-1-[3-[3-(Trifluoromethyl)phenyl]sulfonyl-8-quinolyl]pyrrolidine-3-carboxylic Acid] | 10 to 100 | < 30
6 | CC1(O)CCN(c2cccc3cc(S(=O)(=O)c4cccc(C(F)(F)F)c4)cnc23)CC1 [Example 7, 4-Methyl-1-[3-[3-(trifluoromethyl)phenyl]sulfonyl-8-quinolyl]piperidin-4-ol Hydrochloride] | < 10 | 60 to 120
7 | O=S(=O)(c1ccccc1)c1cnc2c(N3C[C@H](O)[C@@H](O)C3)cccc2c1 [Example 32, (3S,4S)-1-[3-(Benzenesulfonyl)-8-quinolyl]pyrrolidine-3,4-diol] | < 10 | 30 to 60
8 | O=S(=O)(c1cccc(C(F)(F)F)c1)c1cnc2c(N3CC(O)C3)cccc2c1 [Example 8, 1-[3-[3-(Trifluoromethyl)phenyl]sulfonyl-8-quinolyl]azetidin-3-ol] | < 10 | 30 to 60

More lines, now with the values ahead:

Row | Ki (h-5-HT6 receptor) [nM] | microsomal CLint at 0.5 μM [1] [µL/min/mg] | Compound
9 | < 10 | 30 to 60 | O=S(=O)(c1ccccc1)c1cnc2c(N3CCC[C@@H](O)C3)cccc2c1 [Example 23, (3R)-1-[3-(Benzenesulfonyl)-8-quinolyl]piperidin-3-ol]
10 | < 10 | < 30 | O=S(=O)(c1ccccc1)c1cnc2c(N3C[C@@H](O)[C@@H](O)C3)cccc2c1 [Example 42, (3R,4S)-1-[3-(Benzenesulfonyl)-8-quinolyl]pyrrolidine-3,4-diol]
11 | < 10 | 30 to 60 | O=S(=O)(c1cccc(F)c1)c1cnc2c(N3CC[C@@H](O)C3)cccc2c1 [Example 33, (3R)-1-[3-(3-Fluorophenyl)sulfonyl-8-quinolyl]pyrrolidin-3-ol]
